# Tests used:
# [1] = tested on: Mycobacterium tuberculosis (RFP sensitive); assay: Antibacterial activity (MIC) against Mycobacterium tuberculosis (RFP sensitive); type: cell-based
# M. avium = assay: Antibacterial activity (MIC) against M. avium; type: cell-based, Mycobacterium avium
# Description: Antibacterial activity of the compounds of the invention was measured in accordance with the method described in the literature of Antimicrob. […] In the tables, “OFLX” is an abbreviation of “OFLOXAIN”.
# M. intracellulare = assay: Antibacterial activity (MIC) against M. intracellulare; type: cell-based, Mycobacterium intracellulare
# Description: Antibacterial activity of the compounds of the invention was measured in accordance with the method described in the literature of Antimicrob. Agents and Chemother., 38, 2877 (1994), and the results are shown in Tables 3 to 8 in terms of MIC (μg/ml). In the tables, “OFLX” is an abbreviation of “OFLOXAIN”.
# [2] = M. tuberculosis Kurono, Table 5
# [3] = M. tuberculosis No. 40, Table 5
# [4] = M. tuberculosis No. 41, Table 5
# [5] = M. tuberculosis No. 43, Table 5
# [6] = M. tuberculosis No. 68, Table 5
# [7] = M. intracellulare N-294, Table 3
# [8] = M. intracellulare N-313, Table 3
# [9] = M. intracellulare N-338, Table 3
# [10] = M. intracellulare N-345, Table 3
# [11] = M. tuberculosis H37Rv, Table 6 (series 2)
# [12] = M. tuberculosis Kurono, Table 6 (series 2)
# [13] = M. tuberculosis No. 40, Table 6 (series 2)
# [14] = M. tuberculosis No. 41, Table 6 (series 2)
# [15] = M. tuberculosis No. 43, Table 6 (series 2)
# [16] = M. tuberculosis No. 68, Table 6 (series 2)
# [17] = M. avium N-357, Table 4 (series 2)
# [18] = M. avium N-444, Table 4 (series 2)
# [19] = M. avium N-458, Table 4 (series 2)
# [20] = M. avium N-472, Table 4 (series 2)
# [21] = M. intracellulare N-294, Table 4 (series 2)
# [22] = M. intracellulare N-313, Table 4 (series 2)
# [23] = M. intracellulare N-338, Table 4 (series 2)
# [24] = M. intracellulare N-345, Table 4 (series 2)
Structure (SMILES),"MIC ([1]; M. tuberculosis H37Rv, Table 5)","MIC [1, 2]","MIC [1, 3]","MIC [1, 4]","MIC [1, 5]","MIC [1, 6]","MIC (M. avium; M. avium N-357, Table 3)","MIC (M. avium; M. avium N-444, Table 3)","MIC (M. avium; M. avium N-458, Table 3)","MIC (M. avium; M. avium N-472, Table 3)",MIC (M. intracellulare; [7]),MIC (M. intracellulare; [8]),MIC (M. intracellulare; [9]),MIC (M. intracellulare; [10]),also measured
Cc1c(N2CC3CCCNC3C2)c(F)cc2c(=O)c(C(=O)O)cn(C3CC3)c12 (stereo not drawn) [Compd. 9],0.025 µg/mL,0.013 µg/mL,0.013 µg/mL,<0.003 µg/mL,0.10 µg/mL,0.025 µg/mL,0.10 µg/mL,0.10 µg/mL,0.10 µg/mL,0.78 µg/mL,0.39 µg/mL,0.10 µg/mL,0.39 µg/mL,0.39 µg/mL,
Cc1c(N2CC3CCCNC3C2)c(F)cc2c(=O)c(C(=O)O)cn([C@@H]3C[C@@H]3F)c12 (stereo partly drawn) [Compd. 10],0.013 µg/mL,0.006 µg/mL,0.006 µg/mL,<0.003 µg/mL,0.05 µg/mL,0.013 µg/mL,0.05 µg/mL,0.39 µg/mL,0.10 µg/mL,0.39 µg/mL,0.39 µg/mL,0.10 µg/mL,0.39 µg/mL,0.78 µg/mL,
Cc1c(N2CC(N)C3(CC3)C2)c(F)cc2c(=O)c(C(=O)O)cn(C3CC3)c12 (stereo not drawn) [Compd. 11],0.05 µg/mL,0.05 µg/mL,0.05 µg/mL,0.013 µg/mL,0.39 µg/mL,0.05 µg/mL,0.39 µg/mL,1.56 µg/mL,0.39 µg/mL,3.13 µg/mL,1.56 µg/mL,0.39 µg/mL,1.56 µg/mL,3.13 µg/mL,
Cc1c(N2CC(N)C3(CC3)C2)c(F)cc2c(=O)c(C(=O)O)cn([C@@H]3C[C@@H]3F)c12 (stereo partly drawn) [Compd. 12],0.025 µg/mL,0.025 µg/mL,0.025 µg/mL,0.006 µg/mL,0.10 µg/mL,0.05 µg/mL,0.20 µg/mL,0.39 µg/mL,0.39 µg/mL,1.56 µg/mL,0.78 µg/mL,0.20 µg/mL,0.39 µg/mL,0.39 µg/mL,
C[C@H]1COc2c(N3CC4CCCNC4C3)c(F)cc3c(=O)c(C(=O)O)cn1c23 (stereo partly drawn) [Compd. 13],0.05 µg/mL,0.05 µg/mL,0.05 µg/mL,,,0.10 µg/mL,0.39 µg/mL,0.78 µg/mL,0.20 µg/mL,1.56 µg/mL,1.56 µg/mL,0.39 µg/mL,1.56 µg/mL,3.13 µg/mL,
C[C@H]1COc2c(N3CC(N)C4(CC4)C3)c(F)cc3c(=O)c(C(=O)O)cn1c23 (stereo partly drawn) [Compd. 14],0.20 µg/mL,0.10 µg/mL,0.20 µg/mL,,,0.20 µg/mL,1.56 µg/mL,3.13 µg/mL,1.56 µg/mL,6.25 µg/mL,3.13 µg/mL,0.78 µg/mL,6.25 µg/mL,6.25 µg/mL,
CCC1CN(c2c(F)cc3c(=O)c(C(=O)O)cn(C4CC4)c3c2OC)CCN1 (stereo not drawn) [Compd. 17],,,,,,,,,,,,,,,"MIC [1, 11]: 0.12 µg/mL; MIC [1, 12]: 0.12 µg/mL; MIC [1, 13]: 0.12 µg/mL; MIC [1, 14]: 0.06 µg/mL; MIC [1, 15]: 2.0 µg/mL; MIC [1, 16]: 0.25 µg/mL; MIC (M. avium; [17]): 1.0 µg/mL; MIC (M. avium; [18]): 2.0 µg/mL; MIC (M. avium; [19]): 1.0 µg/mL; MIC (M. avium; [20]): 8.0 µg/mL; MIC (M. intracellulare; [21]): 2.0 µg/mL; MIC (M. intracellulare; [22]): 0.25 µg/mL; MIC (M. intracellulare; [23]): 1.0 µg/mL; MIC (M. intracellulare; [24]): 1.0 µg/mL"
CCC1CN(c2c(F)cc3c(=O)c(C(=O)O)cn(C4CC4F)c3c2OC)CCN1 (stereo not drawn) [Compd. 18],,,,,,,,,,,,,,,"MIC [1, 11]: 0.12 µg/mL; MIC [1, 12]: 0.12 µg/mL; MIC [1, 13]: 0.12 µg/mL; MIC [1, 14]: 0.06 µg/mL; MIC [1, 15]: 1.0 µg/mL; MIC [1, 16]: 0.25 µg/mL; MIC (M. avium; [17]): 0.50 µg/mL; MIC (M. avium; [18]): 2.0 µg/mL; MIC (M. avium; [19]): 1.0 µg/mL; MIC (M. avium; [20]): 8.0 µg/mL; MIC (M. intracellulare; [21]): 2.0 µg/mL; MIC (M. intracellulare; [22]): 0.25 µg/mL; MIC (M. intracellulare; [23]): 0.50 µg/mL; MIC (M. intracellulare; [24]): 0.50 µg/mL"

# — patent publication US7176313B2, “Anti acid-fast bacterial agent containing pyridonecarboxylic acids as active ingredient” (Daiichi Pharmaceutical Co., Ltd., priority 2000, dated 2007)
